Experimental data as given in article PMC8650221 (Biochemistry, 2021).
Like-named read-outs stand apart in the source and are kept apart here.

Assays:
T100’A OMPDC [1] = biological target: T1, T100’A OMPDC (Saccharomyces cerevisiae, UniProt P03962, T100A); format: biochemical; settings: pH 7.0, 25 °C, I = 0.15 (NaCl); for (kcat/Km)E•Act/Kd: activated decarboxylation of FO, T100’A OMPDC; for Kd: activator of T100’A OMPDC-catalyzed decarboxylation of FO
D37G OMPDC [2] = biological target: T2, D37G OMPDC (Saccharomyces cerevisiae, UniProt P03962, D37G); test: D37G variant OMPDC-catalyzed decarboxylation of FO, dianion-activated; format: biochemical
T2 sequence (P03962 whole entry D37G): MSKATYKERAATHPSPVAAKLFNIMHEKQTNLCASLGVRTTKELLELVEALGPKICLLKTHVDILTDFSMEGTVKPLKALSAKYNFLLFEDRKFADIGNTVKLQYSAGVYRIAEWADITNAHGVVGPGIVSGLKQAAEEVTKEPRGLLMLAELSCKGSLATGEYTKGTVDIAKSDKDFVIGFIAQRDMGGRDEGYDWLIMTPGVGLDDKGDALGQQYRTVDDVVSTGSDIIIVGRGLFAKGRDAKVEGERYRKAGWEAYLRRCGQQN

wild type OMPDC [3] = settings: cited from earlier work; for stabilization of the transition state for OMPDC-catalyzed decarboxylation of FO by activator (ΔG^‡act): 1.0 M dianion activator; for (kcat/Km)E•Act/Kd: activated decarboxylation of FO, pH 7.0, 25 °C, I = 0.15 (NaCl)
D37G OMPDC [4] = biological target: T2, D37G OMPDC; format: biochemical; settings: phosphite dianion activation of D37G-catalyzed decarboxylation of EO, pH 7.0, 25 °C, I = 0.14 (NaCl)
wild type OMPDC [5] = settings: cited from earlier work
adenylate kinase = settings: cited from earlier work
D37G OMPDC [6] = biological target: T2, D37G OMPDC; test: D37G variant OMPDC-catalyzed decarboxylation of OMP; format: biochemical
T100’A OMPDC [7] = biological target: T1, T100’A OMPDC; test: T100’A variant OMPDC-catalyzed decarboxylation of OMP; format: biochemical
wild type OMPDC [8] = settings: cited from earlier work; remark: listed apart in the source

T1 sequence (P03962 whole entry T100A): as the sequence (P03962 whole entry D37G) above, with G37D, T100A counted along it

Compound	(kcat/Km)E•Act/Kd (T100’A OMPDC [1])	stabilization of the transition state for OMPDC-catalyzed decarboxylation of FO by activator (ΔG^‡act) (wild type OMPDC [3]) [kcal/mol]	(kcat/Km)E•Act/Kd (wild type OMPDC [3])	Kd (T100’A OMPDC [1])	further results
O=P(O)(O)OC[C@@H](O)[C@@H](O)CO [DE4P, D-erythritol 4-phosphate]	(5.4 ± 0.1) × 10^−3 M^−2 s^−1	9.0	6.0 × 10^−1 M^−2 s^−1		Kd (D37G OMPDC [2]): 3 mM
O=P(O)(O)OC[C@H](O)CO [LG3P, L-glycerol 3-phosphate]	(5.3 ± 0.2) × 10^−4 M^−2 s^−1		1.0 × 10^−3 M^−2 s^−1	Kd >> [LG3P]^e	
O=[PH](O)O [HPO3^2−, phosphite dianion]	(1.87 ± 0.03) × 10^−4 M^−2 s^−1	5.2	8.4 × 10^−4 M^−2 s^−1	Kd >> [HPO3^2−]^e	Kd (D37G OMPDC [4]): 5.1 mM; Kd (D37G OMPDC [2]; activator of D37G OMPDC-catalyzed decarboxylation of FO, pH 7.0, 25 °C, I = 0.15 (NaCl)): 4.7 mM; Kd (D37G OMPDC [2]; phosphite dianion activation of D37G-catalyzed decarboxylation of FO): 4.7 mM; ΔG^‡act, stabilization of the decarboxylation transition state by phosphite dianion (wild type OMPDC [5]; decarboxylation of EO, wild type OMPDC): 7.7 kcal/mol; Kd (wild type OMPDC [5]; productive (observed) binding of phosphite dianion activator to wild type OMPDC or variant enzymes): ~100 mM
Nc1ncnc2c1ncn2[C@@H]1O[C@H](COP(=O)(O)O)[C@@H](O)[C@H]1O [AMP]					transition state stabilization by interactions with the adenosyl group (adenylate kinase; enzyme-catalyzed phosphoryl transfer from ATP (to AMP)): ≥ 14.7 kcal/mol
O=C(O)c1cc(=O)[nH]c(=O)n1[C@@H]1O[C@H](COP(=O)(O)O)[C@@H](O)[C@H]1O [OMP, orotidine 5’-monophosphate]					intrinsic dianion binding energy (D37G OMPDC [6]; D37G OMPDC, calculated from ratio of kcat/Km for OMP and EO (Table 1)): 11.0 kcal/mol; decrease in transition state stabilization by protein interactions with the substrate dianion (D37G OMPDC [6]; effect of D37G substitution, decarboxylation of OMP): 0.7 kcal/mol; intrinsic dianion binding energy (T100’A OMPDC [7]; T100’A OMPDC, calculated from ratio of kcat/Km for OMP and EO (Table 1)): 10.8 kcal/mol; decrease in transition state stabilization by protein interactions with the substrate dianion (T100’A OMPDC [7]; effect of T100’A substitution, decarboxylation of OMP): 0.9 kcal/mol; stabilization of the Michaelis complex (wild type OMPDC [8]; Michaelis complex of OMPDC to OMP): 8 kcal/mol; transition state stabilization (wild type OMPDC [8]; OMPDC-catalyzed decarboxylation of OMP): 31 kcal/mol; intrinsic dianion binding energy (wild type OMPDC [8]; wild type OMPDC, from ratio of kcat/Km for OMP and EO): 11.7 kcal/mol
O=P(O)(O)OCC(O)CO [DG3P, D-glycerol 3-phosphate]		7.2	2.5 × 10^−2 M^−2 s^−1		
Nc1c2ncnc-2ncn1[C@@H]1OC[C@@H](O)[C@H]1O [(1-β-D-erythrofuranosyl)adenine]					transition state stabilization by interactions with the substrate piece (adenylate kinase; phosphoryl transfer from ATP to phosphite dianion): ≥ 8.7 kcal/mol
O=P(O)(O)OCC(O)CO (racemic) [DLG3P, D,L-glycerol 3-phosphate]	(1.7 ± 0.2) × 10^−3 M^−2 s^−1		1.3 × 10^−2 M^−2 s^−1	94 ± 8 mM	
